Test results as given in US20250320213A1, “Nitrogen-Containing Heterocyclic Compounds” (Pfizer Inc., priority 2024, published 2025).
Where two headings read alike, the source gives them in different places.

Legend:
[1] = molecular target: T1, STAT6 (Homo sapiens, UniProt P42226); assay: STAT6 Reporter Luciferase Assay (IL-13 stimulated HaCaT keratinocyte NanoLuc reporter cells); assay type: cell-based; conditions: read-out: Reporter EC50
T1 construct: stably transfected HaCaT keratinocyte cell line, which expresses NanoLuc luciferase reporter gene under the transcriptional control of the STAT6 responsive promoter; endogenous in cells; host or cells: HaCaT keratinocyte reporter cell line (stably transfected with a NanoLuc reporter)
T1 sequence (P42226 1-847): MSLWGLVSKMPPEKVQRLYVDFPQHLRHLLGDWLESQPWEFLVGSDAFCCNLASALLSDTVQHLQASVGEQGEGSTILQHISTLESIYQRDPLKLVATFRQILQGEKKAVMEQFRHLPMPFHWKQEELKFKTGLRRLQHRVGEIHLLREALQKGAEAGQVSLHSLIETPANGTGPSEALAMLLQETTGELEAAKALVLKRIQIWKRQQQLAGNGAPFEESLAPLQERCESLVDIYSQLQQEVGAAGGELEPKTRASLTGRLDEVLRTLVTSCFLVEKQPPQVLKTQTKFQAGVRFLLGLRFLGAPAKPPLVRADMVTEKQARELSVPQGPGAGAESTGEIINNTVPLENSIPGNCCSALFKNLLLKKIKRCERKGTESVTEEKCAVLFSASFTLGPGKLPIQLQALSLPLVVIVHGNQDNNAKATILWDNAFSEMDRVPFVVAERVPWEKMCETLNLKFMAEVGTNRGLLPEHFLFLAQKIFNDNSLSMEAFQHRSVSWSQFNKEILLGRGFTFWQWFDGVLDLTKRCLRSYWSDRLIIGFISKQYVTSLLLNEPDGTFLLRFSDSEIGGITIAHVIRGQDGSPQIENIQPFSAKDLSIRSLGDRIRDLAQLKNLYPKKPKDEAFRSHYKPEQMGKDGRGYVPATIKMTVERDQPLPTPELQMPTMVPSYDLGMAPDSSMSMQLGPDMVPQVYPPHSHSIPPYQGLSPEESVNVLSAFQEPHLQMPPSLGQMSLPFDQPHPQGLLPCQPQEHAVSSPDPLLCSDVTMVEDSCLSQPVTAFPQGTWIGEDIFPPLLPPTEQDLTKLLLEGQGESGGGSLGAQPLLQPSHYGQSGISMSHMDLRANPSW
Method in brief: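 HaCaT cells stably carrying a NanoLuc reporter driven by the STAT6-responsive IL-13Ra2 promoter were preincubated with compounds for 2 h at 37 °C in 2% FBS medium. Cells were then stimulated with 0.12 nM IL-13 for 4 h, and luminescence was read after Nano-Glo substrate. Compounds ran as 11-point 4-fold dilutions in duplicate.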

[2] = tested on: CCL17 secretion in peripheral human whole blood; assay: Human Whole Blood (HWB) CCL17 TR-FRET Assay (IL-13 stimulated CCL17 secretion); assay type: cell-based
Method in brief: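 Heparinized human whole blood was preincubated with compound (11-point, 3-fold series) for 2 h at 37°C, then stimulated with IL-13 (10 ng/mL final) for 48 h. Serum CCL17 was measured by TR-FRET sandwich immunoassay (665/615 nm ratio) after 16 h at room temperature, giving IC50.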

[3] = STAT6 NanoLuc luciferase reporter, IL-13 stimulated HaCaT keratinocyte cells
[4] = inhibition of CCL17 secretion in human whole blood, 10 ng/mL IL13, 48 hours
[5] = Homo sapiens, 48 h, inhibition of CCL17 secretion in human whole blood, 10 ng/mL IL13, 48 hours

| SMILES | EC50 [1, 3] [nM] | IC50 [2, 4] [nM] | IC50 [2, 5] [nM] | EC50 ([1]; IL-13 stimulated HaCaT STAT6 NanoLuc reporter cells) [nM] | IC50 ([2]; human whole blood, IL-13 stimulated, 48 hours) [nM] |
| --- | --- | --- | --- | --- | --- |
| Cc1nc(C(=O)NCc2ccc(NC(=O)N(C)C)cc2)c2n1C(C)CN(c1ccc(C(=O)N(C)C)cn1)C2 (single isomer, unassigned) [Example 53, rel-(R or S)-7-(5-(dimethylcarbamoyl)pyridin-2-yl)-N-(4-(3,3-dimethylureido)benzyl)-3,5-dimethyl-5,6,7,8-tetrahydroimidazo[1,5-a]pyrazine-1-carboxamide] | 8 | 19 | – | – | – |
| Cc1nc(C(=O)NCc2ccc(NC(=O)N(C)C)cc2)c2n1C(C)CN(c1ccc(C(=O)N(C)C)cn1)C2 (single isomer, unassigned) [Example 54, rel-(R or S)-7-(5-(dimethylcarbamoyl)pyridin-2-yl)-N-(4-(3,3-dimethylureido)benzyl)-3,5-dimethyl-5,6,7,8-tetrahydroimidazo[1,5-a]pyrazine-1-carboxamide] | 120 | 332 | – | – | – |
| CCC1CN(c2ccc(C(=O)N(C)C)cn2)Cc2c(C(=O)NCc3ccc(NC(=O)N(C)C)cc3)nn(C)c21 (single isomer, unassigned) [Example 78, rel-(R or S)-5-(5-(Dimethylcarbamoyl)pyridin-2-yl)-N-(4-(3,3-dimethylureido)benzyl)-7-ethyl-1-methyl-4,5,6,7-tetrahydro-1H-pyrazolo[4,3-c]pyridine-3-carboxamide] | 3 | 14 | – | – | – |
| CCC1CN(c2ccc(C(=O)N(C)C)cn2)Cc2c(C(=O)NCc3ccc(NC(=O)N(C)C)cc3)n[nH]c21 (single isomer, unassigned) [Example 82, rel-(R or S)-5-(5-(dimethylcarbamoyl)pyridin-2-yl)-N-(4-(3,3-dimethylureido)benzyl)-7-ethyl-4,5,6,7-tetrahydro-1H-pyrazolo[4,3-c]pyridine-3-carboxamide] | 101 | 112 | – | – | – |
| CC(C)n1nc(C(=O)NCc2ccc(NC(=O)N(C)C)cc2)c2c1[C@H](C)CN(c1ccc(C(=O)N(C)C)cn1)C2 (single isomer, unassigned) [Example 112] | 15 | – | 78 | – | – |
| CCn1nc(C(=O)NCc2ccc(NC(=O)N(C)C)cc2)c2c1C[C@@H](C)N(c1ccc(C(=O)N(C)C)cn1)C2 (single isomer, unassigned) [Example 113] | 17 | – | 161 | – | – |
| CCC1Cc2c(c(C(=O)NCc3ccc(NC(=O)N(C)C)cc3)nn2CC)CN1c1ccc(C(=O)N(C)C)cn1 (single isomer, unassigned) [Example 117, rel-(R or S)-5-(5-(dimethylcarbamoyl)pyridin-2-yl)-N-(4-(3,3-dimethylureido)benzyl)-1,6-diethyl-4,5,6,7-tetrahydro-1H-pyrazolo[4,3-c]pyridine-3-carboxamide] | 3 | 13 | – | – | – |
| C[C@H]1CN(c2ccc(C(=O)N(C)C)cn2)Cc2c(C(=O)NCc3ccc(NC(=O)N(C)C)cc3)nn(C3CCC3)c21 (single isomer, unassigned) [Example 119] | 0.3 | – | 4 | – | – |
| C[C@@H]1Cc2c(c(C(=O)NCc3ccc(NC(=O)N(C)C)cc3)nn2C)CN1c1ccc(-c2nccn2C)cn1 (single isomer, unassigned) [Example 122] | 24 | – | 900 | – | – |
| CC(C)n1nc(C(=O)NCc2ccc(-c3ncc[nH]3)cc2)c2c1C(C(F)(F)F)CN(c1ccc(C(=O)N(C)C)cn1)C2 (single isomer, unassigned) [Example 123, rel-(R or S)-N-(4-(1H-imidazol-2-yl)benzyl)-5-(5-(dimethylcarbamoyl)pyridin-2-yl)-1-isopropyl-7-(trifluoromethyl)-4,5,6,7-tetrahydro-1H-pyrazolo[4,3-c]pyridine-3-carboxamide] | 41 | 1010 | – | – | – |
| CC(C)n1nc(C(=O)NCc2ccc(-c3ncc[nH]3)cc2)c2c1C(C(F)(F)F)CN(c1ccc(C(=O)N(C)C)cn1)C2 (single isomer, unassigned) [Example 124, rel-(R or S)-N-(4-(1H-imidazol-2-yl)benzyl)-5-(5-(dimethylcarbamoyl)pyridin-2-yl)-1-isopropyl-7-(trifluoromethyl)-4,5,6,7-tetrahydro-1H-pyrazolo[4,3-c]pyridine-3-carboxamide] | 0.3 | 5 | – | – | – |
| CN(C)C(=O)Nc1ccc(CNC(=O)c2nn(C3CCOC3)c3c2CN(c2ccc(C(=O)N(C)C)cn2)CC3)cc1 (single isomer, unassigned) [Example 190, rel-(R or S)-5-(5-(dimethylcarbamoyl)pyridin-2-yl)-N-(4-(3,3-dimethylureido)benzyl)-1-(tetrahydrofuran-3-yl)-4,5,6,7-tetrahydro-1H-pyrazolo[4,3-c]pyridine-3-carboxamide] | – | – | – | 20 | 38 |

Further molecules by falling EC50 [1, 3], results first:

| EC50 [1, 3] [nM] | IC50 [2, 4] [nM] | IC50 [2, 5] [nM] | EC50 ([1]; IL-13 stimulated HaCaT STAT6 NanoLuc reporter cells) [nM] | IC50 ([2]; human whole blood, IL-13 stimulated, 48 hours) [nM] | SMILES |
| --- | --- | --- | --- | --- | --- |
| 103 | – | 256 | – | – | CCC1CN(c2ccc(C(=O)N(C)C)cn2)Cc2c(C(=O)NCc3ccc(NC(=O)N(C)C)cc3)nc(C)n21 (single isomer, unassigned) [Example 131, rel-(R or S)-7-(5-(dimethylcarbamoyl)pyridin-2-yl)-N-(4-(3,3-dimethylureido)benzyl)-5-ethyl-3-methyl-5,6,7,8-tetrahydroimidazo[1,5-a]pyrazine-1-carboxamide] |
| 86 | 278 | – | – | – | CCC1CN(c2ccc(C(=O)N(C)C)cn2)Cc2c(C(=O)NCc3ccc(NC(=O)N(C)C)cc3)n[nH]c21 (single isomer, unassigned) [Example 83, rel-(R or S)-5-(5-(dimethylcarbamoyl)pyridin-2-yl)-N-(4-(3,3-dimethylureido)benzyl)-7-ethyl-4,5,6,7-tetrahydro-1H-pyrazolo[4,3-c]pyridine-3-carboxamide] |
| 25 | 116 | – | – | – | CCC1Cc2c(c(C(=O)NCc3ccc(NC(=O)N(C)C)cc3)nn2CC)CN1c1ccc(C(=O)N(C)C)cn1 (single isomer, unassigned) [Example 118, rel-(R or S)-5-(5-(dimethylcarbamoyl)pyridin-2-yl)-N-(4-(3,3-dimethylureido)benzyl)-1,6-diethyl-4,5,6,7-tetrahydro-1H-pyrazolo[4,3-c]pyridine-3-carboxamide] |
| 24 | 170 | – | – | – | CCC1CN(c2ccc(C(=O)N(C)C)cn2)Cc2c(C(=O)NCc3ccc(NC(=O)N(C)C)cc3)nn(C)c21 (single isomer, unassigned) [Example 58, rel-(R or S)-5-(5-(Dimethylcarbamoyl)pyridin-2-yl)-N-(4-(3,3-dimethylureido)benzyl)-7-ethyl-1-methyl-4,5,6,7-tetrahydro-1H-pyrazolo[4,3-c]pyridine-3-carboxamide] |
| 15 | – | 118 | – | – | CC(C1CC1)n1nc(C(=O)NCc2ccc(NC(=O)N(C)C)cc2)c2c1CCN(c1ccc(C(=O)N(C)C)cn1)C2 (single isomer, unassigned) [Example 87, rel-(R or S)-1-(1-cyclopropylethyl)-5-(5-(dimethylcarbamoyl)pyridin-2-yl)-N-(4-(3,3-dimethylureido)benzyl)-4,5,6,7-tetrahydro-1H-pyrazolo[4,3-c]pyridine-3-carboxamide] |
| 14 | – | 105 | – | – | CCn1nc(C(=O)NCc2ccc(NC(=O)N(C)C)cc2)c2c1[C@H](C)CN(c1ccc(C(=O)N(C)C)cn1)C2 (single isomer, unassigned) [Example 63] |
| 3 | – | 13 | – | – | CCn1nc(C(=O)NCc2ccc(NC(=O)N(C)C)cc2)c2c1C[C@H](C)N(c1ccc(C(=O)N(C)C)cn1)C2 (single isomer, unassigned) [Example 111] |
| 0.3 | – | 3 | – | – | CC(C)n1nc(C(=O)NCc2ccc(NC(=O)N(C)C)cc2)c2c1[C@@H](C)CN(c1ccc(C(=O)N(C)C)cn1)C2 (single isomer, unassigned) [Example 128] |
